Here are results for two substances from patent US20080160019A1, “SEQUENTIAL COMBINATION THERAPY” (DYAX CORP., priority 2006, published 2008).

Test [1] relates to BxPC3 (human pancreatic cancer cell line) tumor. Briefly: Pancreatic cancer xenograft model, tumor size by calipers (Example 3). As to calculated tumor growth rate, After Avastin: unit not given here. As to calculated tumor growth rate, Before Avastin (Day 10): unit not given here. As to calculated tumor growth rate, Before Avastin (Day 21): unit not given here. The test is classed as in vivo, nude mice (nu/nu). The settings on record: for tumor size as compared to control: as single agents; for Tumor volume: 20 mg/kg IP Q2d from day 1. As for the experimental part: The antitumor activity of combinations of DX-2240 and bevacizumab (anti-VEGF antibody) or sorafenib (multi-kinase inhibitor) were tested in a human tumor xenograft model. BxPC3 (human pancreatic cancer cell line) tumor fragments harvested from host nude mice (nu/nu) bearing subcutaneous BxPC-3 tumors were implanted subcutaneously into female nude mice (study animals) and allowed to form tumors. Mice were pair matched by tumor size and randomized into the various treatment groups when the tumors reached approximately 100 mm^3 (about 18 days following tumor implantation). The animals were assorted into the treatment groups shown in Table 1 (“Start” refers to the day on which treatment was begun). DX-2240 was administered by intraperitoneal (IP) injection at 20 mg/kg; bevacizumab was administered by IP injection at 10 mg/kg, sorafenib was administered orally at 60 mg/kg (for a total of 9 doses), and the control IgG (palivizumab, an antibody of the same isotype as DX-2240) was administered by IP injection at 20 mg/kg at the indicated dosing start dates and dosing regimens. An additional positive control group (group 13) was included: these animals were dosed with gemcitabine at 40 mg/kg Q3d for a total of four doses.
Tumor size was evaluated every three to four days using calipers.

For test [2], the system named is BxPC-3 human pancreas cancer model. In words: BxPC-3 pancreas cancer model, dosing schedules, mean tumor volume (Example 5). To be noted: 20 mg/kg IP Q2D x10 from day 1, implanted tumor fragments. The test is classed as in vivo, nude mice (nu/nu). Here is the method:
Female nude mice (nu/nu) were divided into 14 groups. Animals in groups 1-12 were implanted subcutaneously by trocar with BxPC3 tumor fragments harvested from growing tumors in nude mice hosts. Mice in groups 13-14 were injected subcutaneously with approximately 1×10^7 BxPC-3 cells from tissue culture. When injected tumors grew to approximately 104 mm^3 in size (about 19 days following implantation) and implanted tumors grew to approximately 110 mm^3 in size (about 22 days following implantation) animals were pair-matched by tumor size into treatment and control groups. Animals from groups 1 and 2 were used to evaluate tumor vasculature. Animals from groups 13 and 14 were used to compare effects of DX-2240 on tumors formed from cell injection.
Treatment was initiated after the animals were pair-matched (day 1). Animals in all groups were dosed by weight (10 ml/kg). The control IgG and DX-2240 were administered by IP injection at 20 mg/kg, and bevacizumab and the rat α-mouse VEGF IgG antibody were administered by IP injection at 10 mg/kg once every three days. Dosing was initiated on day −3, 1, 5, 6, 10 or 20.
Individual and group mean tumor volumes were recorded twice weekly from day 1 until day 39.

For the next test, the system named is tumor vasculature. In words: Lectin staining of tumors (tumor vasculature, Example 5). As to lectin staining, High intensity (3+): unit not given here. As to lectin staining, Low intensity (1+): unit not given here. As to lectin staining, Medium intensity (2+): unit not given here. The test is classed as in vivo, nude mice (nu/nu). The settings on record: for lectin staining, High intensity (3+) / lectin staining, Low intensity (1+) / lectin staining, Medium intensity (2+): 20 mg/kg IP Q2D from day 1, BxPC3 tumors. As for the experimental part:
To determine changes in tumor vasculature, three animals from each of groups 1 and 2 were randomly selected for destructive sample collection, including tumor and serum on days 5, 10, 15, and 20. Animals were injected IV with 150 μL of a biotinylated-lectin solution (no injections on day 5 and 15). Five minutes later, animals were perfused by intracardiac injection with a 1% paraformaldehyde solution in PBS for 3 minutes. Tumors were then collected, placed in the perfusion solution, and sent immediately for analysis. Blood was collected by cardiac puncture and serum extracted, flash frozen in liquid nitrogen, and stored at −80° C.

Test [3] deals with DU 145 human prostate tumor model. In words: DU 145 prostate tumor model, mean tumor volume (Example 6). The settings on record: 20 mg/kg IP Q2D x17 from day 1. The test is classed as in vivo, nude mice (nu/nu). As for the experimental part:
Male nude mice (nu/nu) were injected subcutaneously with DU 145 cells harvested from tissue culture (˜1×10^7 cells/mouse). When tumors grew to approximately 95 mm^3 in size (about 7 days following injection), animals were pair-matched by tumor size into treatment and control groups.
Treatment was initiated after the animals were paired-matched (day 1). Animals in control and treatment groups were dosed by weight (10 ml/kg). DX-2240 and the control IgG (palivizumab) were administered by IP injection either once every other day for seventeen treatments beginning day 1 or once every four days for nine treatments beginning day 1. Sorafenib was dosed per os via gavage once daily for nine treatments beginning day 15. To serve as a control, the control IgG was administered every other day for seventeen treatments beginning day 1. Individual and group mean tumor volumes were recorded twice weekly from day 1 until day 57.

For the next test, the target named is Tie1 (Homo sapiens, UniProt P35590). The settings on record: cited from earlier work.
Tie1, sequence (P35590 22-1138): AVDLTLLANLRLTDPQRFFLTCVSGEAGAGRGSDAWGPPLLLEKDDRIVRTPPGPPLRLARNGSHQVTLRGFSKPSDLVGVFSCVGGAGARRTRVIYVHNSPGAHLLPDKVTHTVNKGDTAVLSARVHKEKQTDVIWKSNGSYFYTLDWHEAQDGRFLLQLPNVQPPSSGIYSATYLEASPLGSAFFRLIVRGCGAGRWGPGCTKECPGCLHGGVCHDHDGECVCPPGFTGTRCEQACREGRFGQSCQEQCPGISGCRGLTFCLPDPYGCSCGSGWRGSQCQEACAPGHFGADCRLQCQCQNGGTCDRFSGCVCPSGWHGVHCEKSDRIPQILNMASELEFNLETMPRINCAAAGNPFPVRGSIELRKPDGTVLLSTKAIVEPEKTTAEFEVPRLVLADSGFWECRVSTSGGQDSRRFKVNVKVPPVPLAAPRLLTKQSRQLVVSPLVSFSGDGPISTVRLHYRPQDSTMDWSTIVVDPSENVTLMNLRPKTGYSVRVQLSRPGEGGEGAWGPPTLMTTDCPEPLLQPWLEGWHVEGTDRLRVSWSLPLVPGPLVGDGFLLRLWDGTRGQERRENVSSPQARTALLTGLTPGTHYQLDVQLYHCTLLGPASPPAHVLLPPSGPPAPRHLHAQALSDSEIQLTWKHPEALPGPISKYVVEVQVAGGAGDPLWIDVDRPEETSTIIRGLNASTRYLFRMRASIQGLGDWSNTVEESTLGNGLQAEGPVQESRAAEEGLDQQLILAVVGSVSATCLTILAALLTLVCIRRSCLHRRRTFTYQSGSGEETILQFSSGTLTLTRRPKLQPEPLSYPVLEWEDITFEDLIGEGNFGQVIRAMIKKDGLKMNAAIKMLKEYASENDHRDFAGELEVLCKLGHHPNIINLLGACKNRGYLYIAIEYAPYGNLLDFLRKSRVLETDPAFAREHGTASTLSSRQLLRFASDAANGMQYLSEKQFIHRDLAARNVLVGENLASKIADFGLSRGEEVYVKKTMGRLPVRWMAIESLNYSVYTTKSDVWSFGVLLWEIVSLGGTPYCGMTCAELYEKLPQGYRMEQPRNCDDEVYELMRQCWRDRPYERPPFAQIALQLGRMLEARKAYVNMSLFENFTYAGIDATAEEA
Test [4] deals with DU145 prostate cancer cells. Briefly: Prostate cancer xenograft model, tumor volume (Example 4). It is filed as in vivo, athymic nu/nu mice. The settings on record: bevacizumab alone at 12 mg/kg, Q5d. As for the experimental part: DU145 prostate cancer cells were injected subcutaneously into athymic nu/nu mice and tumors were allowed to form. Animals were assorted into groups of 9-10 mice, then treated with DX-2240 (20 mg/kg by IP injection, […]), an isotype-matched antibody control (A2, 20 mg/kg by IP injection, Q2d), bevacizumab (12 mg/kg by IP injection, […]), DX-2240 20 mg/kg Q2d+bevacizumab (DX-2240 20 mg/kg Q2d+bevacizumab at 12 mg/kg, […], starting at day 25), DX-2240 20 mg/kg Q4d+bevacizumab (DX-2240 20 mg/kg Q4d+bevacizumab at 12 mg/kg, […], starting at day 25), DX-2240 10 mg/kg Q4d+bevacizumab (DX-2240 10 mg/kg Q4d+bevacizumab at 12 mg/kg, […], starting at day 25), DX-2240 5 mg/kg Q4d+bevacizumab (DX-2240 5 mg/kg Q4d+bevacizumab at 12 mg/kg, […], starting at day 25), DX-2240 1 mg/kg Q4d+bevacizumab (DX-2240 1 mg/kg Q4d+bevacizumab at 12 mg/kg, […], starting at day 25), DX-2240+sorafenib (DX-2240 at 20 mg/kg by IP injection, […], sorafenib at 100 mg/kg orally (PO) daily for nine days (QDx9) starting at day 25 and 56), or A2+sorafenib (A2 at 20 mg/kg by IP injection, […], sorafenib 100 mg/kg PO QDx9 starting at day 25 and 56). After day 34, mice in the DX-2240 only and A2 only groups were given an additional agent, and were no longer available as controls for this experiment. Tumor volume was measured twice weekly.

In the case of “DX-2240: Germlined F allotyped E3 antibody, Tie1 ectodomain-binding (SEQ ID NO:10-13)”, the “calculated tumor growth rate, After Avastin” value is 18.6 ± 8.0 in test [1] (DX-2240 or control IgG 20 mg/kg IP Q2d from day 1, after bevacizumab 10 mg/kg IP Q3d (twenty day pretreatment groups)) and 12.2 ± 3.3 in test [1] (DX-2240 or control IgG 20 mg/kg IP Q2d from day 1, after bevacizumab 10 mg/kg IP Q3d started at day 10). Moreover, in test [1] (DX-2240 or control IgG 20 mg/kg IP Q2d from day 1, before bevacizumab (twenty day pretreatment groups)), the “calculated tumor growth rate, Before Avastin (Day 21)” value was 23.1 ± 6.6. The “calculated tumor growth rate, Before Avastin (Day 10)” value in test [1] (DX-2240 or control IgG 20 mg/kg IP Q2d from day 1, before bevacizumab start at day 10) is 23.9 ± 4.9. In addition, the “# of stable tumor growths or tumor regressions” value in test [1] (DX-2240 or control IgG from day 1, bevacizumab (Avastin) after twenty day pretreatment) is on record as 2/8; in test [1] (DX-2240 or control IgG from day 1, bevacizumab (Avastin) from day 10), 1/6. Also, in test [1], the “tumor size as compared to control” value is listed as “reduced tumor size”. Further, the Tumor volume in test [1] (day 1) worked out at 105.6 mm^3; in test [1] (day 3) it was 139.9 mm^3; in test [1] (day 7), 223.1 mm^3; in test [1] (day 10) it was 331.6 mm^3; in test [1] (day 14) it was 460.5 mm^3; in test [1] (day 21), 724.4 mm^3. Also, the Tumor volume was 954.1 mm^3 in test [1] (day 24), 1171.1 mm^3 in test [1] (day 28) and 1351.4 mm^3 in test [1] (day 31). In addition, the mean tumor volume in test [2] (day 1) stood at 107.7 mm^3; in test [2] (day 4), 157.7 mm^3; in test [2] (day 8), 194.2 mm^3; in test [2] (day 11) it was 199.0 mm^3; in test [2] (day 15), 308.7 mm^3; in test [2] (day 18), 289.1 mm^3. The mean tumor volume in test [3] (day 1) is 94.6 mm^3; in test [3] (day 5), 162.6 mm^3; in test [3] (day 9), 269.3 mm^3; in test [3] (day 13) it was 417.3 mm^3; in test [3] (day 15) it was 460.0 mm^3; in test [3] (day 19), 553.9 mm^3. In addition, the mean tumor volume in test [3] (day 23) was 644.4 mm^3; in test [3] (day 26), 707.1 mm^3; in test [3] (day 29) it was 737.8 mm^3; in test [3] (day 33), 866.7 mm^3; in test [3] (day 36) it was 1008.3 mm^3. The “lectin staining of tumors as compared to control animals” value in the test on tumor vasculature (DX-2240 20 mg/kg IP Q2D) is “less lectin staining”. Also, the functional tumor vasculature result in the test with tumor vasculature (DX-2240-treated animals) is on record as “less functional tumor vasculature”. Further, the “lectin staining, High intensity (3+)” value in the test on tumor vasculature (Day 10) came out at 92134; in the test on tumor vasculature (Day 20), 5922. Also, the entries for the “lectin staining, Low intensity (1+)” value with tumor vasculature (Day 10) and with tumor vasculature (Day 20) were 909706 and 122022, respectively. The “lectin staining, Medium intensity (2+)” value amounted to 3468512 in the test on tumor vasculature (Day 10) and 205406 in the test with tumor vasculature (Day 20). Moreover, the Tie1 tyrosine phosphorylation result in the test with Tie1 is given as “induce”. The Tie complex formation entry with Tie1 is recorded as “induce”. Further, in the test with Tie1, the “down modulation of Tie1 from the cell surface” value was “induce”. Also, in the test with Tie1 (e.g., endothelial cells), the “Tie1/Tie2 heterodimers on the surface of cells expressing Tie1 and Tie2” value is on record as “down-modulation”.

For the substance bevacizumab: anti-VEGF antibody, the “tumor size as compared to control” value in test [1] is “reduced tumor size”. For the same substance, the tumor size result in test [4] is on record as “tumor shrinkage”.
